The source of these data is patent US20230303512A1, “MODULATORS OF MYB-MEDIATED TRANSCRIPTION AND USES THEREOF” (Massachusetts Institute of Technology, priority 2020, published 2023).

The subject of experiment [1] is endogenous MYB. The experiment in a line: 5×MRE-luciferase reporter assay in Jurkat cells. It is filed as cell-based. As to conditions: Homo sapiens, 5×MRE firefly luciferase, 18 hours, normalized to DMSO. The procedure: (§1) An assay using a 5×Myb-response element (MRE)-luciferase construct was used to evaluate the compounds' ability to bind MYB and/or disrupt the MYB-NFIB interaction. The 5×MRE reporter was conducted in both HEK293T cells and Jurkat cells, and for the HEK293T system a transient transfection of plasmid vectors expressing either MYB or MYB-NFIB, and a plasmid containing the 5×MRE promoter sequence cloned upstream of Firefly luciferase were used. For the Jurkat system, the reporter was driven by endogenous MYB, and the 5×MRE construct was transiently transfected. Cells were treated with two different high concentrations of each compound (10 and 20 µM) and the luciferase activity was measured 18 hours post-treatment. Individual wells were normalized for viability (cell count) using the Cyto-tox One assay (Promega).
Jurkat cells were reverse transfected at a density of 40,000 cells/well at the time of plating with a plasmid encoding 5×MRE reporter construct driving firefly luciferase expression. 4 hours following transfection, the compound analogs were added using a Tecan transfer tool to the wells. The plate was incubated for 18 hours, and then firefly luciferase signal was measured using promega Steady-glo luciferase assay system according to the manufacturer's protocols. The signal was normalized to control wells which were treated with DMSO vehicle.
Background: In a reporter assay the amount or activity of a reporter protein is the signal.

The subject of experiment [2] is Jurkat. The experiment in a line: Cell Titer Glo viability assay, Jurkat. Type of experiment: cell-based. As to conditions: Homo sapiens, read-out: IC50 Cell Titer Glow Viability Jurkat. (In general: ATP-based viability assays read luminescence as a measure of living cells.)
In experiment [3] the test system is c-Myb. The experiment can be described thus: 5×MRE-luciferase reporter assay in HEK293T cells. Type of experiment: cell-based. As to conditions: Homo sapiens, HEK-293T; c-Myb plus 5×MRE firefly luciferase transfected, 18 hours, normalized to DMSO. The procedure:
as §1
HEK293T cells were plated at a density of 7500 cells/well in a 384-well plate. The following day, the cells were transfected with plasmids encoding 1)c-Myb under control of a CMV promoter, 2) 5×MRE reporter construct driving firefly luciferase expression in a 1:2 ratio. 4 hours following transfection, compound analogs were added using a Tecan transfer tool to the wells. The plate was incubated for 18 hours, and then firefly luciferase signal measured using promega Dual-Glo luciferase assay system according to the manufacturer's protocols. The signal was normalized to control wells which were treated with DMSO vehicle.

The target of experiment [4] is T1, MYB-TAF12 interaction (Homo sapiens, UniProt P10242).
T1 construct: BRET donor or acceptor fusion (which one is not specified); expressed in transfected cells
The experiment in a line: In-cell BRET protein-protein interaction assay. As to conditions: FIG. 1B, read-out: IC50 for blocking the MYB-TAF12 interaction. Type of experiment: cell-based. The procedure:
(§2) In-cell bioluminescence resonance energy transfer (BRET) assays were developed to assess the influence of the compounds on MYB-p300 and MYB-TAF12 interactions (FIG. 1A). […] The ability of KI-TM-001 to modulate MYB protein and transcript levels in MOLT4 and Jurkat cells was also evaluated. […] Degradation appears to be proteasome-dependent as MYB can be rescued by treatment with the proteasome inhibitor MG132.

The subject of experiment [5] is MYB-NFIB fusion protein. The experiment can be described thus: Initial binding studies, MYB-NFIB. Here is the method:
(§3) Next, analogues of KI-TM1-001 were prepared and evaluated. Compounds of Formula (I) may be prepared using the synthetic schemes and procedures described in detail below.

Experiment [6] relates to 800 cancer cell lines. The experiment in a line: PRISM cell profiling in barcoded and pooled cancer cell lines. It is filed as cell-based. The source says:
(§4) Efforts have also included assessment of impact on viable cell growth using traditional luminescent cell viability assays (e.g., CellTiter-Glo™ or GTG) and high-throughput profiling in barcoded and pooled cancer cell lines. Collaboration with the Broad Institute's PRISM cell profiling platform provided the ability to survey sensitivity to KI-TM-001 against 800 cancer cell lines representing a broad spectrum of lineages, including 300 suspension lines and 500 adherent lines.
(§5) Roughly 650 of the lines passed quality control analyses. […] The CTG assay is well established has been used to survey viability of cell lines used routinely in the lab, noting a separation between solid tumor lines and hematopoetic lineages (FIG. 3B).

In experiment [7] the target is T2, MYB (Homo sapiens, UniProt P10242). The experiment can be described thus: MYB protein levels in MOLT4 and Jurkat cells. Type of experiment: cell-based. Set-up: endogenous in cells; host or cells: MOLT4 and Jurkat cells. The procedure: FIG. 2 is a plot showing a dose curve of KI-TM-001, and its effect on MYB protein levels in Molt4 at the 6 hour timepoint.
as §2
Target sequence in this assay (P10242 whole entry): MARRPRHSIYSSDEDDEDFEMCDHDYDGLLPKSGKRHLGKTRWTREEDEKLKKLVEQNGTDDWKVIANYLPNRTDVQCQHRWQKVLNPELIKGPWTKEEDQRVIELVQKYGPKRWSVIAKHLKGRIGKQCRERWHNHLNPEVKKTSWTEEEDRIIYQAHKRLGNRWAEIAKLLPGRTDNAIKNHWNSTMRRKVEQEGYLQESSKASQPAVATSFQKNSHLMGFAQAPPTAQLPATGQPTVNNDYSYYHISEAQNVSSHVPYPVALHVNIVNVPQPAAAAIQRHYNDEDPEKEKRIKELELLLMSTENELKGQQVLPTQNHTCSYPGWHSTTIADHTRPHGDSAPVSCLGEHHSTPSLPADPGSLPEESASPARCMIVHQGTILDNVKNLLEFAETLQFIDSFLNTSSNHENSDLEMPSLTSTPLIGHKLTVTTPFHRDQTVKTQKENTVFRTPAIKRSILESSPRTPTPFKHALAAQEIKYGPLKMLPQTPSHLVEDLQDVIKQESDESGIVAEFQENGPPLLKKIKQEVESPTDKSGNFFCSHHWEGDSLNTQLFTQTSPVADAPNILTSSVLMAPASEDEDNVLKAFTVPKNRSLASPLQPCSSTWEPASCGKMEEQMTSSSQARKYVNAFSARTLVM

Experiment [8] concerns endogenous Myb protein. The experiment can be described thus: Molt4-5×MRE-FLuc reporter assay. It is filed as cell-based. As to conditions: 4 hours, One-Glo, normalized to DMSO; read-out: IC50 Molt4-5xMRE-FLuc Reporter. Here is the method: Molt4 cells were stably transduced with a lentiviral construct encoding a 5×MRE Myb-responsive promoter driving firefly luciferase expression. The reporter output is controlled by the levels/activity of endogenous Myb protein in the Molt4 cell line.
Molt4-5×MRE-FLuc cells were plated at a density of 10000 cells/well in 25 uL of media in a 384-well plate. Compound analogs were added using a Tecan transfer tool to the wells. The plate was incubated for 4 hours, and then firefly luciferase signal measured using promega One-Glo luciferase assay system according to the manufacturer's protocols. The signal was normalized to control wells which were treated with DMSO vehicle.

The target of experiment [9] is T2, MYB. The experiment can be described thus: Initial binding studies, MYB. Here is the method: as §3
Target sequence in this assay (P10242 whole entry, species assumed): as the sequence (P10242 whole entry) above
The subject of experiment [10] is APL line NB4. The experiment in a line: PRISM cell profiling, NB4. As to conditions: PRISM data set. Type of experiment: cell-based.
Source text: as §4, §5

In experiment [11] the test system is MM1.S, a multiple myeloma line. The experiment in a line: Cell Titer Glo assay, MM1.S. Type of experiment: cell-based. As to conditions: Homo sapiens, FIG. 3B.
Source text: FIG. 3B is a plot showing Cell Titer Glo assay results for KI-TM-001 in several hematopoietic lines versus prostate and ovarian cell lines.
as §4, §5

The test system of experiment [12] is Molt4-5×MRE-FLuc cells. The experiment in a line: Cell-Titer Glo viability assay, Molt4-5×MRE-FLuc cells. Type of experiment: cell-based. As to conditions: 4 hours; read-out: IC50 Cell Titer Glo Molt4-5xMRE-FLuc Viability. Here is the method:
Molt4-5×MRE-FLuc cells were plated at a density of 10000 cells/well in 25 uL of media in a 384-well plate. The following day, compound analogs were added using a Tecan transfer tool. The plates were incubated for 4 hours, and then the viability was measured using promega Cell-titer glo assay according to the manufacturer's protocols.

Each structure is given as a SMILES string. “And” between values parts separate entries of the source, which are not always exact repeats. Equal values may be shown once. “Also recorded” adds a separate entry of the source.

T1 sequence (P10242 whole entry, the tested form may be a part): as the sequence (P10242 whole entry) above

Take `Cc1cc(N2CCC(NCc3ccccc3)CC2)nc(N)n1`: the half-maximal inhibitory concentration (IC50) (in general, the concentration that inhibits the measured activity by half) in experiment [1] was 25.7 µM; in experiment [2], over 30 µM; in [3] it was over 40 µM.
For `Cc1cc(N2CCC(NCc3cccc(-n4cccn4)c3)CC2)nc(N)n1`, in that order: 30.6 µM, over 30 µM and over 40 µM.
As for `Cc1cc(N2CCC(NCc3cccc(N4CCCC4)c3)CC2)nc(N)n1` [KI-TM1-001, 4-Methyl-6-(4-((3-(pyrrolidin-1-yl)benzyl)amino)piperidin-1-yl)pyrimidin-2-amine], the IC50 in [4] is 7.07 µM and 7.1 µM; in [6] (PRISM data set, read-out: IC50 in a number of hematopoietic lines), under 1 µM; in [8] it was 13.6 µM; in [10], 0.21 µM; in experiment [12] it was over 40 µM. Also, the “binding to MYB-NFIB fusion protein” value in [5] is “binds”. The “lineages most impacted / lineage enrichment (median AUC versus lineage)” value in [6] (PRISM, roughly 650 lines passed quality control, FIG. 3A, listed as KI-TM-001) is “rhabdomysosarcoma, multiple myeloma, lymphoma, and leukemia; also recorded: mild enrichment for leukemia, lymphoma, multiple myeloma and rhabdomyosarcoma (RMS) cell lines”. In experiment [7] (MOLT4 and Jurkat cells), the “time to impact on MYB protein levels” value is at most 2 h. Besides, the “mechanism of MYB degradation” value in experiment [7] (MYB rescued by the proteasome inhibitor MG132) is listed as “proteasome-dependent”. For the same compound, the “effect on MYB protein levels” value in experiment [7] (different cell lines (MOLT4, Jurkat), FIG. 1C-E, FIG. 2, listed as KI-TM-001) was “dose-dependent reduction of MYB protein; also recorded: dose-dependent manner”. The “binding to MYB” value in [9] is “binds”. Also, halving of growth in experiment [11] (GI50) required 2.01 µM.
As to `Cc1cc(N2CCC(NCc3cccc(N4CCCC4)c3)CC2)nc(N)n1` [drawing 228], the IC50 in experiment [1] was 3.49 µM; in [2], 3.24 µM; in experiment [3], 15.9 µM.
Turning to `Cc1cc(N2CCC(N(Cc3cccc(N4CCCC4)c3)C(=O)NC(C)C)CC2)nc(N)n1` [drawing 230], the IC50 in experiment [1] was 26.4 µM; in experiment [2] it was over 30 µM.
Turning to `CC(=O)N(Cc1cccc(N2CCCC2)c1)C1CCN(c2cc(C)nc(N)n2)CC1` [drawing 231], the IC50 was 11 µM in experiment [1] and over 30 µM in experiment [2].
In the case of `Cc1cc(N2CCC(NCc3ccccc3N3CCCC3)CC2)nc(N)n1` [drawing 232], the IC50 is 3.09 µM in experiment [1], over 30 µM in experiment [2] and over 40 µM in experiment [3].
In the same order, the values of `Cc1cc(N2CCC(NCc3ccc(N4CCCC4)cc3)CC2)nc(N)n1` [drawing 233] are 17.3 µM, over 30 µM and over 40 µM.
As for `Cc1cc(N2CCC(NC(=O)c3cccc(N4CCCC4)c3)CC2)nc(N)n1` [drawing 234], the IC50 in [1] was 11.1 µM; in [2], over 30 µM; in experiment [3], over 40 µM.
As for `Cc1cc(N2CCC(NCc3cccc(N4CCCCC4)c3)CC2)nc(N)n1` [drawing 235], the IC50 in experiment [1] is 4.18 µM; in experiment [2], 11.2 µM; in [3], 25.2 µM.
In the same order, the values of `Cc1cc(N2CCC(NCc3cccc(-n4cccc4)c3)CC2)nc(N)n1` [drawing 236] are 12.1 µM, 21.6 µM and 14.8 µM.
In the case of `Cc1cc(N2CCC(NCc3cccc(N(C)C)c3)CC2)nc(N)n1` [drawing 237], the IC50 in [1] was over 40 µM; in [2], over 30 µM; in experiment [3] it was over 40 µM.
As for `COc1cccc(CNC2CCN(c3cc(C)nc(N)n3)CC2)c1` [drawing 238], the IC50 in [1] was 30.1 µM; in experiment [2], over 30 µM; in [3] it was over 40 µM.
Take `Cc1cc(N2CCC(NCc3cccc(-n4ccnc4)c3)CC2)nc(N)n1` [drawing 240]: the IC50 in experiment [1] is 25.7 µM; in experiment [2], over 30 µM; in [3], over 40 µM.
For the compound `Cc1cc(N2CCC[C@@H](NCc3cccc(N4CCCC4)c3)C2)nc(N)n1` [drawing 241], the 50% inhibitory concentration (IC50) in experiment [1] was 2.25 µM; in [2], 4.41 µM.
In the same order, the values of `Cc1cc(N2CCC[C@H](NCc3cccc(N4CCCC4)c3)C2)nc(N)n1` [drawing 242] are 8.08 µM and 19.7 µM.
For `Cc1cc(NCCCNCc2cccc(N3CCCC3)c2)nc(N)n1` [drawing 243], in that order: 8.55 µM and over 30 µM.
With `Cc1cc(N2CCC(NCc3cccc(N4CCCC4)c3)CC2)ncn1` [drawing 244], in experiment [3], the IC50 is over 30 µM.
Turning to `Cc1cc(N2CCC(NCc3cccc(C(C)(C)C)c3)CC2)nc(N)n1` [drawing 245], the IC50 in experiment [3] is over 30 µM.
Still for that read-out and setting: to `CCN(CC)c1ccc(CNC2CCN(c3cc(C)nc(N)n3)CC2)cc1` [drawing 246] belongs over 30 µM.
